Our source for the IC50 values is patent US10669283B2, “Compound and pharmacologically acceptable salt thereof” (MEIJI SEIKA PHARMA CO., LTD., priority 2016, dated 2020).

Some results are limits rather than exact numbers.

The subject of one test is PDE4. Nature of the test: PDE4 inhibition, scintillation proximity assay (SPA).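 On PDE4 Inhibitory Activity (concentration for the inhibition rate of 50%): A below 100 nM B 100 to below 1000 nM C 1000 nM or more.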 It is filed as biochemical. As to conditions: scintillation proximity assay (SPA); evaluated as classes A, B, C; read-out: PDE4 Inhibitory Activity (concentration for the inhibition rate of 50%). An outline of the steps:
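Compound pre-diluted 1:10 in 50 mM Tris-HCl pH 7.4, 8.3 mM MgCl2, 1.7 mM EGTA, 3 mg/mL BSA, then incubated with PDE4 and [2,8-3H]-cAMP for 120 min at room temperature. Product captured on ZnSO4-containing YSi-SPA beads for 15 min; radioactivity counted against no-enzyme blank and DMSO control.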
With `COCCOc1cc(-c2nccs2)c2oc(N3CC4CCC(C3)N4)nc2c1` [Example 69, 2-(3,8-Diazabicyclo[3.2.1]octan-3-yl)-5-(2-methoxyethoxy)-7-(thiazol-2-yl)benzo[d]oxazole], the IC50 was below 0.1 µM. On the same count and under the same terms, with `CC(=O)Nc1cc(-c2nccs2)c2oc(N3CC4CC(C3)N4)nc2c1` [Example 49, N-(2-(3,6-diazabicyclo[3.1.1]heptan-3-yl)-7-(thiazol-2-yl)benzo[d]oxazol-5-yl)acetamide] the figure was 0.1 to 1 µM; with `COC(C)(c1cc(-c2nccs2)c2oc(N3CC4CCC(C3)N4)nc2c1)C(F)(F)F` (stereo not drawn) [Example 102, 2-(3,8-Diazabicyclo[3.2.1]octan-3-yl)-7-(thiazol-2-yl)-5-(1,1,1-trifluoro-2-methoxypropan-2-yl)benzo[d]oxazole], below 0.1 µM; with `CC(O)(c1ccc(-c2nccs2)c2oc(N3CC4CCC(C3)N4)nc12)C(F)(F)F` (stereo not drawn) [Example 236, 2-(2-(3,8-Diazabicyclo[3.2.1]octan-3-yl)-7-(thiazol-2-yl)benzo[d]oxazol-4-yl)-1,1,1-trifluoropropan-2-ol], below 0.1 µM.

As to `COCCOC(c1cc(-c2nccs2)c2oc(N3CC4CC(C3)N4)nc2c1)C(F)(F)F` (stereo not drawn) [Example 154, 2-(3,6-Diazabicyclo[3.1.1]heptan-3-yl)-7-(thiazol-2-yl)-5-(2,2,2-trifluoro-1-(2-methoxyethoxy)ethyl)benzo[d]oxazole], the IC50 is below 0.1 µM. The same measure, in the same setting: with `FC(F)(F)c1ccc(-c2nccs2)c2oc(N3CC4CCCC(C3)N4)nc12` [Example 33, 2-(3,9-Diazabicyclo[3.3.1]nonan-3-yl)-7-(thiazol-2-yl)-4-(trifluoromethyl)benzo[d]oxazole] the figure was below 0.1 µM; with `OC(c1ccc(-c2nccs2)c2oc(N3CC4CCC(C3)N4)nc12)C(F)F` (stereo not drawn) [Example 128, 1-(2-(3,8-Diazabicyclo[3.2.1]octan-3-yl)-7-(thiazol-2-yl)benzo[d]oxazol-4-yl)-2,2-difluoroethan-1-ol], below 0.1 µM; with `CN(C)C(=O)c1ccc(-c2nccs2)c2oc(N3CC4CCC(C3)N4)nc12` [Example 115, 2-(3,8-Diazabicyclo[3.2.1]octan-3-yl)-N,N-dimethyl-7-(thiazol-2-yl)benzo[d]oxazole-4-carboxamide], below 0.1 µM.

In the case of `COC(c1cc(-c2nccs2)c2oc(N3CC4CCCC(C3)N4)nc2c1)C(F)(F)F` (stereo not drawn) [Example 145, 2-(3,9-Diazabicyclo[3.3.1]nonan-3-yl)-7-(thiazol-2-yl)-5-(2,2,2-trifluoro-1-methoxyethyl)benzo[d]oxazole], the IC50 is below 0.1 µM. On the same count and under the same terms, with `OC(c1cc(-n2cccn2)c2oc(N3CC4CCC(C3)N4)nc2c1)C(F)(F)F` (stereo not drawn) [Example 140, 1-(2-(3,8-Diazabicyclo[3.2.1]octan-3-yl)-7-(1H-pyrazol-1-yl)benzo[d]oxazol-5-yl)-2,2,2-trifluoroethan-1-ol] the figure was below 0.1 µM. With `COC(C)(C)c1cc(-c2cscn2)c2oc(N3CC4CCC(C3)N4)nc2c1OC(F)(F)F` [Example 298, 2-(3,8-Diazabicyclo[3.2.1]octan-3-yl)-5-(2-methoxypropan-2-yl)-7-(thiazol-4-yl)-4-(trifluoromethoxy)benzo[d]oxazole], the IC50 is below 0.1 µM. In the case of `COC(c1ccc(-c2nccs2)c2oc(N3CC4CCC(C3)N4)nc12)C(F)F` (stereo not drawn) [Example 131, 2-(3,8-Diazabicyclo[3.2.1]octan-3-yl)-4-(2,2-difluoro-1-methoxyethyl)-7-(thiazol-2-yl)benzo[d]oxazole], the IC50 is below 0.1 µM. On the same count and under the same terms, with `C[C@H](O)COc1ccc(-c2nccs2)c2oc(N3CC4CC(C3)N4)nc12` [Example 260, (2S)-1-((2-(3,6-diazabicyclo[3.1.1]heptan-3-yl)-7-(thiazol-2-yl)benzo[d]oxazol-4-yl)oxy)propan-2-ol] the figure was below 0.1 µM; with `OC(O)(c1ccc(-c2nccs2)c2oc(N3CC4CCC(C3)N4)nc12)C(F)(F)F` [Example 233, 1-(2-(3,8-Diazabicyclo[3.2.1]octan-3-yl)-7-(thiazol-2-yl)benzo[d]oxazol-4-yl)-2,2,2-trifluoroethane-1,1-diol], below 0.1 µM. On the same count and under the same terms, the result for `FC(F)Oc1ccc(-c2nccs2)c2oc(N3CC4CC(C3)N4)nc12` [Example 278, 2-(3,6-Diazabicyclo[3.1.1]heptan-3-yl)-4-(difluoromethoxy)-7-(thiazol-2-yl)benzo[d]oxazole] reads below 0.1 µM; that for `CC(O)c1ccc(-c2nccs2)c2oc(N3CC4CCCC(C3)N4)nc12` (stereo not drawn) [Example 239, 1-(2-(3,9-Diazabicyclo[3.3.1]nonan-3-yl)-7-(thiazol-2-yl)benzo[d]oxazol-4-yl)ethan-1-ol], below 0.1 µM. For the molecule `OC(c1cc(-c2cscn2)c2oc(N3CC4CCC(C3)N4)nc2c1OC(F)(F)F)C(F)F` (stereo not drawn) [Example 303, 1-(2-(3,8-Diazabicyclo[3.2.1]octan-3-yl)-7-(thiazol-4-yl)-4-(trifluoromethoxy)benzo[d]oxazol-5-yl)-2,2-difluoroethan-1-ol], the IC50 was below 0.1 µM.

On to `CCOC(=O)c1cc(-n2cccn2)c2oc(N3CC4CCC(C3)N4)nc2c1` [Example 90, Ethyl 2-(3,8-diazabicyclo[3.2.1]octan-3-yl)-7-(1H-pyrazol-1-yl)benzo[d]oxazole-5-carboxylate], for which the IC50 is 0.1 to 1 µM. On to `OCCOC(c1cc(-c2nccs2)c2oc(N3CC4CCC(C3)N4)nc2c1)C(F)(F)F` (stereo not drawn) [Example 149, 2-(1-(2-(3,8-Diazabicyclo[3.2.1]octan-3-yl)-7-(thiazol-2-yl)benzo[d]oxazol-5-yl)-2,2,2-trifluoroethoxy)ethan-1-ol], for which the IC50 was below 0.1 µM. The same measure, in the same setting: with `CC(O)C(F)(F)Oc1ccc(-c2cscn2)c2oc(N3CC4CCC(C3)N4)nc12` (stereo not drawn) [Example 310, 1-((2-(3,8-Diazabicyclo[3.2.1]octan-3-yl)-7-(thiazol-4-yl)benzo[d]oxazol-4-yl)oxy)-1,1-difluoropropan-2-ol] the figure was below 0.1 µM. Still for that read-out and setting: with `COC(C)(c1cc(-c2nccs2)c2oc(N3CC4CCC(C3)N4)nc2c1OC(F)(F)F)C(F)(F)F` (stereo not drawn) [Example 215, 2-(3,8-Diazabicyclo[3.2.1]octan-3-yl)-7-(thiazol-2-yl)-5-(1,1,1-trifluoro-2-methoxypropan-2-yl)-4-(trifluoromethoxy)benzo[d]oxazole] the figure was below 0.1 µM. The same measure, in the same setting: with `COC(C)(c1cc(-c2nccs2)c2oc(N3CC4CC(C3)N4)nc2c1)C(F)(F)F` (stereo not drawn) [Example 103, 2-(3,6-Diazabicyclo[3.1.1]heptan-3-yl)-7-(thiazol-2-yl)-5-(1,1,1-trifluoro-2-methoxypropan-2-yl)benzo[d]oxazole] the figure was below 0.1 µM; with `CC(O)(c1cc(-c2nccs2)c2oc(N3CC4CCCC(C3)N4)nc2c1)C(F)(F)F` (stereo not drawn) [Example 161, 2-(2-(3,9-Diazabicyclo[3.3.1]nonan-3-yl)-7-(thiazol-2-yl)benzo[d]oxazol-5-yl)-1,1,1-trifluoropropan-2-ol], below 0.1 µM. Take `c1csc(-c2ccc(OC3CCCOC3)c3nc(N4CC5CCC(C4)N5)oc23)n1` (stereo not drawn) [Example 262, 2-(3,8-Diazabicyclo[3.2.1]octan-3-yl)-4-((tetrahydro-2H-pyran-3-yl)oxy)-7-(thiazol-2-yl)benzo[d]oxazole]: the IC50 was below 0.1 µM. Take `OC(c1ccc(-c2nccs2)c2oc(N3CC4CC(C3)N4)nc12)C(F)(F)F` (stereo not drawn) [Example 120, 1-(2-(3,6-Diazabicyclo[3.1.1]heptan-3-yl)-7-(thiazol-2-yl)benzo[d]oxazol-4-yl)-2,2,2-trifluoroethan-1-ol]: the IC50 was below 0.1 µM.

In the case of `CCOC(=O)c1cc(-c2nccs2)c2oc(N3CC4CC(C3)N4)nc2c1` [Example 87, Ethyl 2-(3,6-diazabicyclo[3.1.1]heptan-3-yl)-7-(thiazol-2-yl)benzo[d]oxazole-5-carboxylate], the IC50 was below 0.1 µM. As for `CC(O)c1cc(-c2nccs2)c2oc(N3CC4CC(C3)N4)nc2c1OC(F)(F)F` (stereo not drawn) [Example 273, 1-(2-(3,6-Diazabicyclo[3.1.1]heptan-3-yl)-7-(thiazol-2-yl)-4-(trifluoromethoxy)benzo[d]oxazol-5-yl)ethan-1-ol], the IC50 was below 0.1 µM.

Consider `CC(C)c1cc(-c2nccs2)c2oc(N3CC4CCCC(C3)N4)nc2c1` [Example 24, 2-(3,9-Diazabicyclo[3.3.1]nonan-3-yl)-5-isopropyl-7-(thiazol-2-yl)benzo[d]oxazole], for which the IC50 was below 0.1 µM.

In the case of `COC(C)(C)c1cc(-c2nccs2)c2oc(N3CC4CCCC(C3)N4)nc2c1OC(F)(F)F` [Example 200, 2-(3,9-Diazabicyclo[3.3.1]nonan-3-yl)-5-(2-methoxypropan-2-yl)-7-(thiazol-2-yl)-4-(trifluoromethoxy)benzo[d]oxazole], the IC50 was below 0.1 µM.

The same test, now with this note: scintillation proximity assay; class symbols; read-out: PDE4 Inhibitory Activity.
Take `c1csc(-c2ccc(N3CCCC3)c3nc(N4CC5CC(C4)N5)oc23)n1` [Example 415, 2-(3,6-diazabicyclo[3.1.1]heptan-3-yl)-4-(pyrrolidin-1-yl)-7-(thiazol-2-yl)benzo [d]oxazole]: the IC50 was below 0.1 µM. The same measure, in the same setting: the result for `CC(C)(O)c1cc(-c2nccs2)c2oc(N3CC4CCC(C3)N4O)nc2c1OC(F)(F)F` [Example 368, 3-(5-(2-hydroxy-propan-2-yl)-7-(thiazol-2-yl)-4-(trifluoromethoxy)benzo[d]oxazol-2-yl)-3,8-diazabicyclo [3.2.1]octan-8-ol] reads 0.1 to 1 µM; that for `C=CC(F)(F)Oc1ccc(-c2nccs2)c2oc(N3CC4CC(C3)N4)nc12` [Example 351, 2-(3,6-diazabicyclo[3.1.1]heptan-3-yl)-4-((1,1-difluoroallyl)oxy)-7-(thiazol-2-yl)benzo[d] oxazole], below 0.1 µM. Still for that read-out and setting: with `OC(c1ccc(-c2nccs2)c2oc(N3CC4CCC(C3)N4O)nc12)C(F)(F)F` (stereo not drawn) [Example 378, 3-(7-(thiazol-2-yl)-4-(2,2,2-trifluoro-1-hydroxyethyl)benzo[d]oxazol-2-yl)-3,8-diazabicyclo[3.2.1] octan-8-ol] the figure was 0.1 to 1 µM.
